Patent US10244762B1, “Solid aquatic organism control composition and method of use” (priority 2016, dated 2019)

Tested on: Microcystis aeruginosa
Assay: M. aeruginosa cultures, peroxide held constant with Fe-EDTA and citric acid
Format: cell-based
Conditions: 1.75 ppm H2O2; for In vivo chl a concentrations (± SD) of M. aeruginosa cultures: initial 3.83 ± 0.05 μg/L
Experimental: Tests were conducted similar to Example 1 to show the efficacy of compositions made according to the present disclosure against Microcystis aeruginosa. M. aeruginosa is a species of fresh water bacteria that can form harmful algal blooms.
Peroxide concentrations were held constant at either 0.5 ppm, 1.5 ppm, 1.75 ppm, or 2.0 ppm. Fe-EDTA was applied at 0.3%, 0.6%, or 0.9% based on the original dry formulation. Citric acid was added at 1% based on the original dry formulation.
For instance, Tables 5 and 6 below illustrate the differences when peroxide was applied at 1.75 ppm.

OO [H2O2, hydrogen peroxide]
In vivo chl a concentrations (± SD) of M. aeruginosa cultures (day 1): 2.87 ± 0.74 µg/L
In vivo chl a concentrations (± SD) of M. aeruginosa cultures (day 2): 1.72 ± 0.66 µg/L
In vivo chl a concentrations (± SD) of M. aeruginosa cultures (day 3): 1.31 ± 0.64 µg/L
In vivo chl a concentrations (± SD) of M. aeruginosa cultures (day 4): 1.32 ± 0.63 µg/L
Cell density of M. aeruginosa cultures (± SD) (day 4, initial cell density 2.2E+06 ± 7.2E+04 cells/mL): 8.0E+04 cells/mL
